Test results taken from patent US8178535B2, “Substituted sulfonamide compounds having bradykinin 1 receptor activity and use thereof as medicaments” (Gruenenthal GmbH, priority 2008, dated 2012).

Assays:
[1] = biological target: T1, human B1R receptor (hB1R) (Homo sapiens, UniProt P46663); experiment: FLIPR Ca2+ assay (Fluo-4) on CHO K1 cells stably transfected with the human B1R gene; type: cell-based; conditions: CHO-K1; test substance 10 μM; agonist Lys-Des-Arg9-bradykinin 0.5 nM; % inhibition compared to the maximum achievable inhibition
T1 construct: host or cells: CHO K1 cells
T1 sequence (P46663 1-353): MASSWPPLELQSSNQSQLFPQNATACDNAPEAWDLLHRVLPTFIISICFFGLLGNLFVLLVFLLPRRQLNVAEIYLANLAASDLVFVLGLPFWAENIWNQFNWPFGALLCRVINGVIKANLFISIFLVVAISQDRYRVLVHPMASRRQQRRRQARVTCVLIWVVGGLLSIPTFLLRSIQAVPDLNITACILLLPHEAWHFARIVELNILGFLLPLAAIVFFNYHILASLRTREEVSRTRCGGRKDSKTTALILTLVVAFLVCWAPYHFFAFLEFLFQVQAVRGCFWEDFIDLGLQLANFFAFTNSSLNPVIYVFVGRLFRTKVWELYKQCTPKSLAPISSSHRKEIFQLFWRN
Summary of the method: (§1)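 CHO K1 cells stably expressing human or rat B1R, Fluo-4 loaded, read by FLIPR (Ex 488/Em 540, peak fluorescence). Compound at 10 μM gives % activation vs agonist. After 10 min, agonist added (human: Lys-Des-Arg9-bradykinin 0.5 nM; rat: Des-Arg9-bradykinin 100 nM); % inhibition relative to maximal achievable inhibition.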

[2] = biological target: T2, B1R receptor of rats (rB1R) (Rattus norvegicus, UniProt P97583); experiment: FLIPR Ca2+ assay (Fluo-4) on CHO K1 cells stably transfected with the B1R gene of rats; type: cell-based; conditions: CHO-K1; test substance 10 μM; agonist Des-Arg9-bradykinin 100 nM; % inhibition compared to the maximum achievable inhibition
T2 construct: host or cells: CHO K1 cells
T2 sequence (P97583 1-337): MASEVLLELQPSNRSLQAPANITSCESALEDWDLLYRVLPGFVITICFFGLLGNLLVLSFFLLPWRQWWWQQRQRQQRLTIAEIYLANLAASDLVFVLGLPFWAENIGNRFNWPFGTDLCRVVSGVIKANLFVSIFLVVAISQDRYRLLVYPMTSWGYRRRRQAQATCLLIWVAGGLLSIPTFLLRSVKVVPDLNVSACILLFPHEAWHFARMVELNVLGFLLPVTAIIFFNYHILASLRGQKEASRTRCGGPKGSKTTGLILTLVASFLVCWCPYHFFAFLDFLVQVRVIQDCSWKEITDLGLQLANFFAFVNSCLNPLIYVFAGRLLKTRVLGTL
Summary of the method: as §1

inhibition at 10 µM [1] [%]	inhibition at 10 µM [2] [%]	SMILES
86	101	COc1cc(C)c(S(=O)(=O)N2CCCCC2CCC(=O)N2CCn3c(CCc4cccnc4)ccc3C2)c(C)c1 (stereo not shown) [(102), 3-(1-(4-Methoxy-2,6-dimethylphenylsulfonyl)piperidin-2-yl)-1-(6-(2-(pyridin-3-yl)ethyl)-3,4-dihydropyrrolo[1,2-a]pyrazin-2(1H)-yl)propan-1-one]
95	100	COc1cc(C)c(S(=O)(=O)N2CCCCC2CCCC(=O)N2CCn3c(CCc4cccnc4)ccc3C2)c(C)c1 (stereo not shown) [(103), 4-(1-(4-Methoxy-2,6-dimethylphenylsulfonyl)piperidin-2-yl)-1-(6-(2-(pyridin-3-yl)ethyl)-3,4-dihydropyrrolo[1,2-a]pyrazin-2(1H)-yl)butan-1-one]
43	49	O=C(CC1CCCCN1S(=O)(=O)c1cccc(C(F)(F)F)c1)N1CCn2cc(-c3ccncc3)nc2C1 (stereo not shown) [(104), 1-(2-(Pyridin-4-yl)-5,6-dihydroimidazo[1,2-a]pyrazin-7(8H)-yl)-2-(1-(3-(trifluoromethyl)phenylsulfonyl)piperidin-2-yl)ethanone]
64	103	COc1cc(C)c(S(=O)(=O)N2CCCCC2CCCC(=O)N2CCn3c(Cc4cccnc4)ccc3C2)c(C)c1 (stereo not shown) [(105), 4-(1-(4-Methoxy-2,6-dimethylphenylsulfonyl)piperidin-2-yl)-1-(6-(pyridin-3-ylmethyl)-3,4-dihydropyrrolo[1,2-a]pyrazin-2(1H)-yl)butan-1-one]
99	99	COc1cc(C)c(S(=O)(=O)N2CCCCC2COCC(=O)N2CCn3c(CCc4ccncc4)ccc3C2)c(C)c1 (stereo not shown) [(106), 2-((1-(4-Methoxy-2,6-dimethylphenylsulfonyl)piperidin-2-yl)methoxy)-1-(6-(2-(pyridin-4-yl)ethyl)-3,4-dihydropyrrolo[1,2-a]pyrazin-2(1H)-yl)ethanone]
26	75	O=C(CC1CCCCN1S(=O)(=O)c1cccc(C(F)(F)F)c1)N1CCn2c(CCc3ccncc3)ccc2C1 (stereo not shown) [(107), 1-(6-(2-(Pyridin-4-yl)ethyl)-3,4-dihydropyrrolo[1,2-a]pyrazin-2(1H)-yl)-2-(1-(3-(trifluoromethyl)phenylsulfonyl)piperidin-2-yl)ethanone]
92	99	COc1cc(C)c(S(=O)(=O)N2CCCCC2CCC(=O)N2CCn3c(CCc4ccncc4)ccc3C2)c(C)c1 (stereo not shown) [(108), 3-(1-(4-Methoxy-2,6-dimethylphenylsulfonyl)piperidin-2-yl)-1-(6-(2-(pyridin-4-yl)ethyl)-3,4-dihydropyrrolo[1,2-a]pyrazin-2(1H)-yl)propan-1-one]
95	99	COc1cc(C)c(S(=O)(=O)N2CCCCC2CCCC(=O)N2CCn3c(CCc4ccncc4)ccc3C2)c(C)c1 (stereo not shown) [(109), 4-(1-(4-Methoxy-2,6-dimethylphenylsulfonyl)piperidin-2-yl)-1-(6-(2-(pyridin-4-yl)ethyl)-3,4-dihydropyrrolo[1,2-a]pyrazin-2(1H)-yl)butan-1-one]
84	101	COc1cc(C)c(S(=O)(=O)N2CCCCC2CCCC(=O)N2CCn3c(ccc3-c3ccncc3)C2)c(C)c1 (stereo not shown) [(110), 4-(1-(4-Methoxy-2,6-dimethylphenylsulfonyl)piperidin-2-yl)-1-(6-(pyridin-4-yl)-3,4-dihydropyrrolo[1,2-a]pyrazin-2(1H)-yl)butan-1-one]
100	98	COc1cc(C)c(S(=O)(=O)N2CCCCC2COCC(=O)N2CCn3c(Cc4cccnc4)ccc3C2)c(C)c1 (stereo not shown) [(111), 2-((1-(4-Methoxy-2,6-dimethylphenylsulfonyl)piperidin-2-yl)methoxy)-1-(6-(pyridin-3-ylmethyl)-3,4-dihydropyrrolo[1,2-a]pyrazin-2(1H)-yl)ethanone]
100	101	COc1cc(C)c(S(=O)(=O)N2CCCCC2COCC(=O)N2CCn3cc(-c4ccncc4)nc3C2)c(C)c1 (stereo not shown) [(112), 2-((1-(4-Methoxy-2,6-dimethylphenylsulfonyl)piperidin-2-yl)methoxy)-1-(2-(pyridin-4-yl)-5,6-dihydroimidazo[1,2-a]pyrazin-7(8H)-yl)ethanone]
97	100	COc1cc(C)c(S(=O)(=O)N2CCCCC2CCC(=O)N2CCn3c(Cc4cccnc4)ccc3C2)c(C)c1 (stereo not shown) [(113), 3-(1-(4-Methoxy-2,6-dimethylphenylsulfonyl)piperidin-2-yl)-1-(6-(pyridin-3-ylmethyl)-3,4-dihydropyrrolo[1,2-a]pyrazin-2(1H)-yl)propan-1-one]
79	98	COc1cc(C)c(S(=O)(=O)N2CCCCC2CCC(=O)N2CCn3cc(-c4ccncc4)nc3C2)c(C)c1 (stereo not shown) [(114), 3-(1-(4-Methoxy-2,6-dimethylphenylsulfonyl)piperidin-2-yl)-1-(2-(pyridin-4-yl)-5,6-dihydroimidazo[1,2-a]pyrazin-7(8H)-yl)propan-1-one]
100	98	COc1cc(C)c(S(=O)(=O)N2CCCCC2COCC(=O)N2CCn3cc(CCc4ccncc4)nc3C2)c(C)c1 (stereo not shown) [(115), 2-((1-(4-Methoxy-2,6-dimethylphenylsulfonyl)piperidin-2-yl)methoxy)-1-(2-(2-(pyridin-4-yl)ethyl)-5,6-dihydroimidazo[1,2-a]pyrazin-7(8H)-yl)ethanone]
78	102	O=C(CC1CCCCN1S(=O)(=O)c1cccc(C(F)(F)F)c1)N1CCn2cc(CCc3ccncc3)nc2C1 (stereo not shown) [(116), 1-(2-(2-(pyridin-4-yl)ethyl)-5,6-dihydroimidazo[1,2-a]pyrazin-7(8H)-yl)-2-(1-(3-(trifluoromethyl)phenylsulfonyl)piperidin-2-yl)ethanone]
82	98	COc1cc(C)c(S(=O)(=O)N2CCCCC2CCC(=O)N2CCn3cc(CCc4ccncc4)nc3C2)c(C)c1 (stereo not shown) [(117), 3-(1-(4-Methoxy-2,6-dimethylphenylsulfonyl)piperidin-2-yl)-1-(2-(2-(pyridin-4-yl)ethyl)-5,6-dihydroimidazo[1,2-a]pyrazin-7(8H)-yl)propan-1-one]
98	102	COc1cc(C)c(S(=O)(=O)N2CCCCC2CCCC(=O)N2CCn3cc(CCc4ccncc4)nc3C2)c(C)c1 (stereo not shown) [(118), 4-(1-(4-Methoxy-2,6-dimethylphenylsulfonyl)piperidin-2-yl)-1-(2-(2-(pyridin-4-yl)ethyl)-5,6-dihydroimidazo[1,2-a]pyrazin-7(8H)-yl)butan-1-one]
90	107	COc1cc(C)c(S(=O)(=O)N2CCCCC2CCCC(=O)N2CCn3cc(Cc4ccncc4)nc3C2)c(C)c1 (stereo not shown) [(119), 4-(1-(4-Methoxy-2,6-dimethylphenylsulfonyl)piperidin-2-yl)-1-(2-(pyridin-4-ylmethyl)-5,6-dihydroimidazo[1,2-a]pyrazin-7(8H)-yl)butan-1-one]
99	105	COc1cc(C)c(S(=O)(=O)N2CCCCC2COCC(=O)N2CCn3cc(Cc4ccncc4)nc3C2)c(C)c1 (stereo not shown) [(120), 2-((1-(4-Methoxy-2,6-dimethylphenylsulfonyl)piperidin-2-yl)methoxy)-1-(2-(pyridin-4-ylmethyl)-5,6-dihydroimidazo[1,2-a]pyrazin-7(8H)-yl)ethanone]
66	51	COc1cc(C)c(S(=O)(=O)N2CCCCC2CCC(=O)N2CCn3cc(Cc4ccncc4)nc3C2)c(C)c1 (stereo not shown) [(121), 3-(1-(4-Methoxy-2,6-dimethylphenylsulfonyl)piperidin-2-yl)-1-(2-(pyridin-4-ylmethyl)-5,6-dihydroimidazo[1,2-a]pyrazin-7(8H)-yl)propan-1-one]
